# Experimental data: ChEMBL document CHEMBL1201862, “PubChem BioAssay data set” (2004)
#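 Dose response: 5 concentrations. Exposure: 48 h. Format: 96-well plates. Endpoint: linear interpolation; highest concentration if not reached. GI50: concentration for 50% inhibition of growth.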 Active and inactive are the calls of the source. Rule as the data show it: active = GI50 up to about 1.1 µM and inactive = higher.
# How the values were obtained:
# Test in all cases: growth of human tumour cells (NCI), 48 h
# NCI-H522 = test system: NCI-H522
# UO-31 = test system: UO-31
# NCI-H226 = test system: NCI-H226
# HOP-92 = test system: HOP-92
# LOX IMVI = test system: LOX IMVI
# A498 = test system: A498
# OVCAR-4 = test system: OVCAR-4
# KM12 = test system: KM12
# DMS-114 = test system: DMS-114
# M19-MEL = test system: M19-MEL
# CCRF-CEM = test system: CCRF-CEM
# CAKI-1 = test system: CAKI-1
# EKVX = test system: EKVX
# HCT-15 = test system: HCT-15
# SK-OV-3 = test system: SK-OV-3
# RXF 631 = test system: RXF 631
# SNB-75 = test system: SNB-75
# NCI-H460 = test system: NCI-H460
# SNB-78 = test system: SNB-78
# K562 = test system: K562
# MOLT-4 = test system: MOLT-4
# XF498 = test system: XF498
# KM-20L2 = test system: KM-20L2
# SK-MEL-2 = test system: SK-MEL-2
# DMS-273 = test system: DMS-273
# DLD-1 = test system: DLD-1
# SF-268 = test system: SF-268
# OVCAR-8 = test system: OVCAR-8
# SF-295 = test system: SF-295
# NCI-H23 = test system: NCI-H23
# ACHN = test system: ACHN
# OVCAR-5 = test system: OVCAR-5
# HL-60 = test system: HL-60
# SK-MEL-5 = test system: SK-MEL-5
# HOP-62 = test system: HOP-62
# SNB-19 = test system: SNB-19
# HCT-116 = test system: HCT-116
# 786-0 = test system: 786-0
# SW-620 = test system: SW-620
# U-251 = test system: U-251
# Malme-3M = test system: Malme-3M
# IGROV-1 = test system: IGROV-1
# LXFL 529 = test system: LXFL 529
# UACC-257 = test system: UACC-257
# COLO 205 = test system: COLO 205
# HCC 2998 = test system: HCC 2998
# HOP-18 = test system: HOP-18
# TK-10 = test system: TK-10
# UACC-62 = test system: UACC-62
# OVCAR-3 = test system: OVCAR-3
# A549 = test system: A549
# M14 = test system: M14
# SN12C = test system: SN12C
# SK-MEL-28 = test system: SK-MEL-28
# HT-29 = test system: HT-29
# RPMI-8226 = test system: RPMI-8226
# SR = test system: SR
# RXF 393 = test system: RXF 393
# SF-539 = test system: SF-539
# T47D = test system: T47D
# NCI/ADR-RES = test system: NCI/ADR-RES
# MDA-MB-231 = test system: MDA-MB-231
# MCF7 = test system: MCF7
# DU-145 = test system: DU-145
# BT-549 = test system: BT-549
# MDA-N = test system: MDA-N
# PC-3 = test system: PC-3
# Hs-578T = test system: Hs-578T
# MDA-MB-435 = test system: MDA-MB-435
compound,measurement,setting,value
O=C(O)C1CCC(=O)N1C(=O)C(Cl)c1ccccc1 (stereo not given),GI50,NCI-H522,> 100 µM (inactive)
same,GI50,UO-31,> 100 µM (inactive)
same,GI50,NCI-H226,> 100 µM (inactive)
same,GI50,HOP-92,> 100 µM (inactive)
same,GI50,LOX IMVI,> 100 µM (inactive)
same,GI50,A498,> 100 µM (inactive)
same,GI50,OVCAR-4,> 100 µM (inactive)
same,GI50,KM12,> 100 µM (inactive)
same,GI50,DMS-114,> 100 µM (inactive)
same,GI50,M19-MEL,> 100 µM (inactive)
same,GI50,CCRF-CEM,> 100 µM (inactive)
same,GI50,CAKI-1,> 100 µM (inactive)
same,GI50,EKVX,> 100 µM (inactive)
same,GI50,HCT-15,> 100 µM
same,GI50,SK-OV-3,> 100 µM (inactive)
same,GI50,RXF 631,> 100 µM (inactive)
same,GI50,SNB-75,> 100 µM (inactive)
same,GI50,NCI-H460,> 100 µM (inactive)
same,GI50,SNB-78,> 100 µM (inactive)
same,GI50,K562,> 100 µM (inactive)
same,GI50,MOLT-4,> 100 µM (inactive)
same,GI50,XF498,> 100 µM (inactive)
same,GI50,KM-20L2,> 100 µM (inactive)
same,GI50,SK-MEL-2,> 100 µM (inactive)
same,GI50,DMS-273,> 100 µM (inactive)
same,GI50,DLD-1,> 100 µM (inactive)
same,GI50,SF-268,> 100 µM (inactive)
same,GI50,OVCAR-8,> 100 µM (inactive)
same,GI50,SF-295,> 100 µM (inactive)
same,GI50,NCI-H23,> 100 µM (inactive)
same,GI50,ACHN,> 100 µM (inactive)
same,GI50,OVCAR-5,> 100 µM (inactive)
same,GI50,HL-60,> 100 µM (inactive)
same,GI50,SK-MEL-5,> 100 µM (inactive)
same,GI50,HOP-62,> 100 µM (inactive)
same,GI50,SNB-19,> 100 µM (inactive)
same,GI50,HCT-116,> 100 µM (inactive)
same,GI50,786-0,> 100 µM (inactive)
same,GI50,SW-620,> 100 µM (inactive)
same,GI50,U-251,> 100 µM (inactive)
same,GI50,Malme-3M,> 100 µM (inactive)
same,GI50,IGROV-1,> 100 µM (inactive)
same,GI50,LXFL 529,> 100 µM (inactive)
same,GI50,UACC-257,> 100 µM (inactive)
same,GI50,COLO 205,> 100 µM (inactive)
same,GI50,HCC 2998,> 100 µM (inactive)
same,GI50,HOP-18,> 100 µM (inactive)
same,GI50,TK-10,> 100 µM (inactive)
same,GI50,UACC-62,> 100 µM (inactive)
same,GI50,OVCAR-3,> 100 µM (inactive)
same,GI50,A549,> 100 µM (inactive)
same,GI50,M14,> 100 µM (inactive)
same,GI50,SN12C,> 100 µM (inactive)
same,GI50,SK-MEL-28,> 100 µM (inactive)
same,GI50,HT-29,> 100 µM (inactive)
same,GI50,RPMI-8226,> 100 µM (inactive)
O=C(Nc1nc2ncn(CCO)c2c(=S)[nH]1)c1ccccc1,GI50,NCI-H522,> 100 µM (inactive)
same,GI50,UO-31,> 100 µM (inactive)
same,GI50,SR,> 100 µM (inactive)
same,GI50,NCI-H226,> 100 µM (inactive)
same,GI50,HOP-92,> 100 µM (inactive)
same,GI50,LOX IMVI,> 100 µM (inactive)
same,GI50,A498,> 100 µM (inactive)
same,GI50,OVCAR-4,> 100 µM (inactive)
same,GI50,KM12,> 100 µM (inactive)
same,GI50,DMS-114,> 100 µM (inactive)
same,GI50,M19-MEL,> 100 µM (inactive)
same,GI50,CCRF-CEM,> 100 µM (inactive)
same,GI50,CAKI-1,> 100 µM (inactive)
same,GI50,EKVX,> 100 µM (inactive)
same,GI50,HCT-15,> 100 µM
same,GI50,SK-OV-3,> 100 µM (inactive)
same,GI50,RXF 631,> 10 µM (inactive)
same,GI50,SNB-75,> 100 µM (inactive)
same,GI50,RXF 393,> 100 µM (inactive)
same,GI50,NCI-H460,> 100 µM (inactive)
same,GI50,SNB-78,> 100 µM (inactive)
same,GI50,K562,> 100 µM (inactive)
same,GI50,XF498,> 100 µM (inactive)
same,GI50,KM-20L2,> 100 µM (inactive)
same,GI50,SK-MEL-2,> 100 µM (inactive)
same,GI50,SF-539,> 100 µM (inactive)
same,GI50,DMS-273,> 100 µM (inactive)
same,GI50,DLD-1,> 100 µM (inactive)
same,GI50,SF-268,> 100 µM (inactive)
same,GI50,OVCAR-8,> 100 µM (inactive)
same,GI50,SF-295,> 100 µM (inactive)
same,GI50,ACHN,> 100 µM (inactive)
same,GI50,OVCAR-5,> 100 µM (inactive)
same,GI50,HL-60,> 100 µM (inactive)
same,GI50,SK-MEL-5,> 100 µM (inactive)
same,GI50,HOP-62,> 100 µM (inactive)
same,GI50,SNB-19,> 100 µM (inactive)
same,GI50,HCT-116,> 100 µM (inactive)
same,GI50,786-0,> 100 µM (inactive)
same,GI50,SW-620,> 100 µM (inactive)
same,GI50,U-251,> 100 µM (inactive)
same,GI50,Malme-3M,> 100 µM (inactive)
same,GI50,IGROV-1,> 100 µM (inactive)
same,GI50,LXFL 529,> 100 µM (inactive)
same,GI50,UACC-257,> 100 µM (inactive)
same,GI50,COLO 205,> 100 µM (inactive)
same,GI50,HOP-18,> 100 µM (inactive)
same,GI50,TK-10,> 100 µM (inactive)
same,GI50,UACC-62,> 100 µM (inactive)
same,GI50,OVCAR-3,> 100 µM (inactive)
same,GI50,A549,> 100 µM (inactive)
same,GI50,M14,> 100 µM (inactive)
same,GI50,SN12C,> 100 µM (inactive)
same,GI50,HT-29,> 100 µM (inactive)
same,GI50,RPMI-8226,> 100 µM (inactive)
CCNC(=O)/C(=C/c1ccc(OC)cc1)c1cc(OC)c(OC)c(OC)c1,GI50,NCI-H522,4.92 µM (inactive)
same,GI50,UO-31,20.1 µM (inactive)
same,GI50,SR,4.17 µM (inactive)
same,GI50,T47D,> 20.4 µM (inactive)
same,GI50,NCI-H226,40.7 µM (inactive)
same,GI50,HOP-92,28.3 µM (inactive)
same,GI50,LOX IMVI,8.39 µM (inactive)
same,GI50,A498,14.9 µM (inactive)
same,GI50,OVCAR-4,68.2 µM (inactive)
same,GI50,KM12,4.23 µM (inactive)
same,GI50,DMS-114,11.7 µM (inactive)
same,GI50,M19-MEL,14.8 µM (inactive)
same,GI50,CCRF-CEM,6.79 µM (inactive)
same,GI50,CAKI-1,6.03 µM (inactive)
same,GI50,NCI/ADR-RES,3 µM (inactive)
same,GI50,EKVX,64.1 µM (inactive)
same,GI50,HCT-15,4.11 µM
same,GI50,SK-OV-3,6.85 µM (inactive)
same,GI50,RXF 631,32.5 µM (inactive)
same,GI50,SNB-75,4.97 µM (inactive)
same,GI50,MDA-MB-231,6.41 µM (inactive)
same,GI50,RXF 393,1.95 µM (inactive)
same,GI50,MCF7,4.84 µM (inactive)
same,GI50,NCI-H460,5.31 µM (inactive)
same,GI50,DU-145,13.3 µM (inactive)
same,GI50,SNB-78,23.1 µM (inactive)
same,GI50,K562,3.19 µM (inactive)
same,GI50,MOLT-4,7.35 µM (inactive)
same,GI50,XF498,17.3 µM (inactive)
same,GI50,KM-20L2,3.91 µM (inactive)
same,GI50,SK-MEL-2,7.57 µM (inactive)
same,GI50,SF-539,7.87 µM (inactive)
same,GI50,DMS-273,3.47 µM (inactive)
same,GI50,DLD-1,14.7 µM (inactive)
same,GI50,SF-268,13.8 µM (inactive)
same,GI50,OVCAR-8,21.3 µM (inactive)
same,GI50,SF-295,2.98 µM (inactive)
same,GI50,NCI-H23,13 µM (inactive)
same,GI50,BT-549,14.4 µM (inactive)
same,GI50,MDA-N,1.58 µM (inactive)
same,GI50,PC-3,3.52 µM (inactive)
same,GI50,ACHN,32.8 µM (inactive)
same,GI50,OVCAR-5,63.8 µM (inactive)
same,GI50,HL-60,2.96 µM (inactive)
same,GI50,SK-MEL-5,3.71 µM (inactive)
same,GI50,HOP-62,10.9 µM (inactive)
same,GI50,SNB-19,12.5 µM (inactive)
same,GI50,HCT-116,6.18 µM (inactive)
same,GI50,786-0,8.85 µM (inactive)
same,GI50,SW-620,4.52 µM (inactive)
same,GI50,U-251,7.21 µM (inactive)
same,GI50,Malme-3M,5.53 µM (inactive)
same,GI50,IGROV-1,19.7 µM (inactive)
same,GI50,Hs-578T,5.26 µM (inactive)
same,GI50,LXFL 529,24.2 µM (inactive)
same,GI50,UACC-257,13.5 µM (inactive)
same,GI50,MDA-MB-435,2.09 µM (inactive)
same,GI50,COLO 205,5.11 µM (inactive)
same,GI50,HCC 2998,4.68 µM (inactive)
same,GI50,HOP-18,> 100 µM (inactive)
same,GI50,TK-10,20.5 µM (inactive)
same,GI50,UACC-62,3.8 µM (inactive)
same,GI50,OVCAR-3,3.78 µM (inactive)
same,GI50,A549,7.62 µM (inactive)
same,GI50,M14,9.29 µM (inactive)
same,GI50,SN12C,20.7 µM (inactive)
same,GI50,SK-MEL-28,5.79 µM (inactive)
same,GI50,HT-29,3.41 µM (inactive)
same,GI50,RPMI-8226,14 µM (inactive)
